Reference: paper PMC10333465, “Multi-Function of a New Bioactive Secondary Metabolite Derived from Endophytic Fungus Colletotrichum acutatum of Angelica sinensis” (Journal of Microbiology and Biotechnology, 2022)
Values after ≈ are worked out from the molar mass of the structure shown.

Legend:
Format in all cases: biochemical
[1] = target: T1, DNA topoisomerase I (Human Top I) (Homo sapiens, UniProt P11387); assay: pBR322 supercoiled DNA relaxation assay, agarose gel ([…])
T1 construct: gene TOP1
T1 sequence (P11387 2-765): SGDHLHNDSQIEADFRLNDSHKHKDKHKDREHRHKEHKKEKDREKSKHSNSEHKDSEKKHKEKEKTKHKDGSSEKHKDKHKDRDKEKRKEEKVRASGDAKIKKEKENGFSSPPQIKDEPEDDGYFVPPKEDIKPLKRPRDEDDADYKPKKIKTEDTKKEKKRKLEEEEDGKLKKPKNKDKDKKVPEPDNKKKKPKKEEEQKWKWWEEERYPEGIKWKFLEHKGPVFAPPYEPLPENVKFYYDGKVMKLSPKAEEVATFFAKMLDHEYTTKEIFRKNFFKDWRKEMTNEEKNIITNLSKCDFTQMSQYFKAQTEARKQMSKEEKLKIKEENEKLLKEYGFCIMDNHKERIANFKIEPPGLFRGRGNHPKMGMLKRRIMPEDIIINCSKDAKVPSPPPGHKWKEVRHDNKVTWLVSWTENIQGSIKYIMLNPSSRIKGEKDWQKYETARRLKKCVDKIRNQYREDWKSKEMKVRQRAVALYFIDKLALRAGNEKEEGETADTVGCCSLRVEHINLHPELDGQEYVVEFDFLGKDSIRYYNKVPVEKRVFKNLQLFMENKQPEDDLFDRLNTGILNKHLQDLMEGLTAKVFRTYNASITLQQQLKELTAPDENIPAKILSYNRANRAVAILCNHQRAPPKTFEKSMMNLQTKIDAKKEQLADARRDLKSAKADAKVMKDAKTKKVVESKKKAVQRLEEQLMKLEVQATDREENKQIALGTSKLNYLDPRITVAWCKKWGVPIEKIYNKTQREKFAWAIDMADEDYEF

α-amylase = assay: colorimetric starch/DNS enzyme assay
α-glucosidase = assay: colorimetric pNPG enzyme assay

CCCC(O)c1coc(=O)c(C)c1OC (stereo not drawn) [C-HMMP, 5-(1-hydroxybutyl)-4-methoxy-3-methyl-2H-pyran-2-one]
pBR322 supercoiled DNA relaxation assay, agarose gel (50, 150, 250 μg/ml) [1]: ~ 250 μg/ml | IC50 (α-amylase): 118.6 µg/mL (≈ 559 µM) | IC50 (α-glucosidase): 144.7 µg/mL (≈ 682 µM)
